The values below come from patent US12559529B2, “NPY2 receptor agonists” (Boehringer Ingelheim International GmbH, priority 2019, dated 2026).

*1 amine or outer side, *2 acyl side, *3 side chain or, on linkers, in order; H or OH if unused. Where a SMILES comes first, the peptide text is derived from it. Side-chain parts run from the residue outwards. The star is where a group is joined. C18 diacid = O=C(O)CCCCCCCCCCCCCCCCC(=O)*; γGlu = O=C(O)[C@H](CCC(=O)[*:2])N[*:1]; Isovaleryl = CC(C)CC(=O)*; AEEA = NCCOCCOCC(=O)O

In the assay the target is T1, Human Neuropeptide Y2 Receptor (Homo sapiens, UniProt P49146).
T1 construct: purchased CHEMICON HTS066M
T1 sequence (P49146 1-381): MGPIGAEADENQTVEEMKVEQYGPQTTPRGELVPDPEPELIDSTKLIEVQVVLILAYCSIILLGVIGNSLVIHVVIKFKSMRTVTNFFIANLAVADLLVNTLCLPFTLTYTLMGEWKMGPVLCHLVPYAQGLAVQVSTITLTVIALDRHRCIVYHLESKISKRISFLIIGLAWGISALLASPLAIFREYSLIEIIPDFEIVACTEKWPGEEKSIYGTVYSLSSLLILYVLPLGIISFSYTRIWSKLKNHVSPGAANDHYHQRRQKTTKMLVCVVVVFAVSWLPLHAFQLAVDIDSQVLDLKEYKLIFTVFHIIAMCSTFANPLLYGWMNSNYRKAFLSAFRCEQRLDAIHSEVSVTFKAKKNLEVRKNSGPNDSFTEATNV
Kind of assay: Radioligand binding competition assay (RLB). To be noted: Table 3; human 125I-PYY (1-36) 0.02 nM, Y2 receptor membranes; read-out: Ki. An outline of the steps:
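Competition binding on human Y2 receptor membranes, 0.5 μg protein/well, in 50 mM HEPES, 5 mM MgCl2, 1 mM CaCl2, pH 7.4, 0.2% ovalbumin; peptides diluted from 1 mM DMSO stocks.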
Consider `CC(C)CC(=O)N[C@@H](C)C(=O)N1CCC[C@H]1C(=O)N[C@@H](CCC(=O)O)C(=O)N[C@@H](CCCCNC(=O)COCCOCCNC(=O)COCCOCCNC(=O)CC[C@H](NC(=O)CCCCCCCCCCCCCCCCC(=O)O)C(=O)O)C(=O)N1CCC[C@H]1C(=O)N[C@@H](CCC(=O)O)C(=O)N[C@@H](C)C(=O)N[C@@H](CC(=O)O)C(=O)N[C@@H](C)C(=O)N[C@@H](CO)C(=O)N1CCC[C@H]1C(=O)N[C@@H](CCC(=O)O)C(=O)N[C@@H](CCC(=O)O)C(=O)N[C@@H](CC(C)C)C(=O)N[C@@H](CCC(N)=O)C(=O)N[C@@H](CCCNC(=N)N)C(=O)N[C@@H](Cc1ccc(O)cc1)C(=O)N[C@@H](CCC(=O)O)C(=O)N[C@H](C(=O)N[C@@H](CO)C(=O)N[C@@H](CC(C)C)C(=O)N[C@@H](CCCNC(=N)N)C(=O)N[C@@H](Cc1c[nH]cn1)C(=O)N[C@@H](Cc1ccc(O)cc1)C(=O)N[C@@H](Cc1ccc(O)cc1)C(=O)N[C@@H](CC(N)=O)C(=O)N[C@@H](Cc1c[nH]c2ccccc12)C(=O)N[C@@H](CC(C)C)C(=O)N[C@H](C(=O)N[C@@H](CCCNC(=N)N)C(=O)N[C@@H](CCC(N)=O)C(=O)N[C@@H](CCCNC(=N)N)C(=O)N[C@@H](Cc1ccc(O)cc1)C(N)=O)[C@@H](C)O)C(C)C` [Compound 86, N{alpha-4}-(3-methylbutanoyl)-N{epsilon-7}-[2-(2-{2-[2-(2-{2-[(4S)-4-carboxy-4-(17-carboxyheptadecanamido)butanamido]ethoxy}ethoxy)acetamido]ethoxy}ethoxy)acetamido]-[4A,7K,9E,10A,18Q,21E,22V,28Y,30W,31L]hPYY (4-36)] (Isovaleryl-APEK([AEEA-AEEA-γGlu-C18 diacid])PEADASPEELQRYEVSLRHYYNWLTRQRY-NH2), for which the Ki (commonly the dissociation constant of the complex between target and ligand, obtained from inhibition or displacement) came out at 1.19 nM.

Take `CC(C)CC(=O)N[C@@H](C)C(=O)N1CCC[C@H]1C(=O)N[C@@H](CCC(=O)O)C(=O)N[C@@H](CCCCNC(=O)COCCOCCNC(=O)COCCOCCNC(=O)CC[C@H](NC(=O)CCCCCCCCCCCCCCCCC(=O)O)C(=O)O)C(=O)N1CCC[C@H]1C(=O)N[C@@H](CCC(=O)O)C(=O)N[C@@H](CCC(=O)O)C(=O)N[C@@H](CC(=O)O)C(=O)N[C@@H](CO)C(=O)N[C@@H](CO)C(=O)N1CCC[C@H]1C(=O)N[C@@H](C)C(=O)N[C@@H](CCC(=O)O)C(=O)N[C@@H](CC(C)C)C(=O)N[C@@H](CCC(N)=O)C(=O)N[C@@H](CCCNC(=N)N)C(=O)N[C@@H](Cc1ccc(O)cc1)C(=O)N[C@@H](Cc1ccc(O)cc1)C(=O)N[C@H](C(=O)N[C@@H](CO)C(=O)N[C@@H](CC(C)C)C(=O)N[C@@H](CCCNC(=N)N)C(=O)N[C@@H](Cc1c[nH]cn1)C(=O)N[C@@H](Cc1ccc(O)cc1)C(=O)N[C@@H](Cc1ccc(O)cc1)C(=O)N[C@@H](CC(N)=O)C(=O)N[C@@H](Cc1c[nH]c2ccccc12)C(=O)N[C@@H](CC(C)C)C(=O)N[C@H](C(=O)N[C@@H](CCCNC(=N)N)C(=O)N[C@@H](CCC(N)=O)C(=O)N[C@@H](CCCNC(=N)N)C(=O)N[C@@H](Cc1ccc(O)cc1)C(N)=O)[C@@H](C)O)C(C)C` [Compound 87, N{alpha-4}-(3-methylbutanoyl)-N{epsilon-7}-[2-(2-{2-[2-(2-{2-[(4S)-4-carboxy-4-(17-carboxyheptadecanamido)butanamido]ethoxy}ethoxy)acetamido]ethoxy}ethoxy)acetamido]-[4A,7K,9E,12S,15A,18Q,22V,28Y,30W,31L]hPYY (4-36)] (Isovaleryl-APEK([AEEA-AEEA-γGlu-C18 diacid])PEEDSSPAELQRYYVSLRHYYNWLTRQRY-NH2): the Ki was determined as 1.97 nM.

As to `CC(C)CC(=O)N[C@@H](C)C(=O)N1CCC[C@H]1C(=O)N[C@@H](CCC(=O)O)C(=O)N[C@@H](CCCCNC(=O)COCCOCCNC(=O)COCCOCCNC(=O)CC[C@H](NC(=O)CCCCCCCCCCCCCCCCC(=O)O)C(=O)O)C(=O)N1CCC[C@H]1C(=O)N[C@@H](CCC(=O)O)C(=O)N[C@@H](CCC(=O)O)C(=O)N[C@@H](CCC(=O)O)C(=O)N[C@@H](C)C(=O)N[C@@H](CCC(=O)O)C(=O)N1CCC[C@H]1C(=O)N[C@@H](CCC(=O)O)C(=O)N[C@@H](CCC(=O)O)C(=O)N[C@@H](CC(C)C)C(=O)N[C@@H](CCC(N)=O)C(=O)N[C@@H](CCCNC(=N)N)C(=O)N[C@@H](Cc1ccc(O)cc1)C(=O)N[C@@H](Cc1ccc(O)cc1)C(=O)N[C@H](C(=O)N[C@@H](CO)C(=O)N[C@@H](CC(C)C)C(=O)N[C@@H](CCCNC(=N)N)C(=O)N[C@@H](Cc1c[nH]cn1)C(=O)N[C@@H](Cc1ccc(O)cc1)C(=O)N[C@@H](Cc1ccc(O)cc1)C(=O)N[C@@H](CC(N)=O)C(=O)N[C@@H](Cc1c[nH]c2ccccc12)C(=O)N[C@@H](CC(C)C)C(=O)N[C@H](C(=O)N[C@@H](CCCNC(=N)N)C(=O)N[C@@H](CCC(N)=O)C(=O)N[C@@H](CCCNC(=N)N)C(=O)N[C@@H](Cc1ccc(O)cc1)C(N)=O)[C@@H](C)O)C(C)C` [Compound 89, N{alpha-4}-(3-methylbutanoyl)-N{epsilon-7}-[2-(2-{2-[2-(2-{2-[(4S)-4-carboxy-4-(17-carboxyheptadecanamido)butanamido]ethoxy}ethoxy)acetamido]ethoxy}ethoxy)acetamido]-[4A,7K,9E,11E,13E,18Q,22V,28Y,30W,31L]hPYY (4-36)], the Ki was 9.61 nM.

In the case of `CC(C)CC(=O)N[C@@H](C)C(=O)N1CCC[C@H]1C(=O)N[C@@H](CCC(=O)O)C(=O)N[C@@H](CCCCNC(=O)COCCOCCNC(=O)COCCOCCNC(=O)CC[C@H](NC(=O)CCCCCCCCCCCCCCCCC(=O)O)C(=O)O)C(=O)N1CCC[C@H]1C(=O)N[C@@H](CCC(=O)O)C(=O)N[C@@H](CCC(=O)O)C(=O)N[C@@H](CC(=O)O)C(=O)N[C@H](C(=O)N[C@@H](CO)C(=O)N1CCC[C@H]1C(=O)N[C@@H](CCC(=O)O)C(=O)N[C@@H](CCC(=O)O)C(=O)N[C@@H](CC(C)C)C(=O)N[C@@H](CCC(N)=O)C(=O)N[C@@H](CCCNC(=N)N)C(=O)N[C@@H](Cc1ccc(O)cc1)C(=O)N[C@@H](Cc1ccc(O)cc1)C(=O)N[C@H](C(=O)N[C@@H](CO)C(=O)N[C@@H](CC(C)C)C(=O)N[C@@H](CCCNC(=N)N)C(=O)N[C@@H](Cc1c[nH]cn1)C(=O)N[C@@H](Cc1ccc(O)cc1)C(=O)N[C@@H](Cc1ccc(O)cc1)C(=O)N[C@@H](CC(N)=O)C(=O)N[C@@H](Cc1c[nH]c2ccccc12)C(=O)N[C@@H](CC(C)C)C(=O)N[C@H](C(=O)N[C@@H](CCCNC(=N)N)C(=O)N[C@@H](CCC(N)=O)C(=O)N[C@@H](CCCNC(=N)N)C(=O)N[C@@H](Cc1ccc(O)cc1)C(N)=O)[C@@H](C)O)C(C)C)[C@@H](C)O` [Compound 92, N{alpha-4}-(3-methylbutanoyl)-N{epsilon-7}-[2-(2-{2-[2-(2-{2-[(4S)-4-carboxy-4-(17-carboxyheptadecanamido)butanamido]ethoxy}ethoxy)acetamido]ethoxy}ethoxy)acetamido]-[4A,7K,9E,12T,18Q,22V,28Y,30W,31L]hPYY (4-36)], the Ki stood at 1.57 nM.
